Test results published in publication PMC3248991 (2011).

Target: HDM2 (MDM2) (Homo sapiens, UniProt Q00987)
Experiment: HTR-FRET competition assay of biotin-p53 / GST-HDM2 binding

Chain of HDM2 (MDM2) (Q00987 whole entry): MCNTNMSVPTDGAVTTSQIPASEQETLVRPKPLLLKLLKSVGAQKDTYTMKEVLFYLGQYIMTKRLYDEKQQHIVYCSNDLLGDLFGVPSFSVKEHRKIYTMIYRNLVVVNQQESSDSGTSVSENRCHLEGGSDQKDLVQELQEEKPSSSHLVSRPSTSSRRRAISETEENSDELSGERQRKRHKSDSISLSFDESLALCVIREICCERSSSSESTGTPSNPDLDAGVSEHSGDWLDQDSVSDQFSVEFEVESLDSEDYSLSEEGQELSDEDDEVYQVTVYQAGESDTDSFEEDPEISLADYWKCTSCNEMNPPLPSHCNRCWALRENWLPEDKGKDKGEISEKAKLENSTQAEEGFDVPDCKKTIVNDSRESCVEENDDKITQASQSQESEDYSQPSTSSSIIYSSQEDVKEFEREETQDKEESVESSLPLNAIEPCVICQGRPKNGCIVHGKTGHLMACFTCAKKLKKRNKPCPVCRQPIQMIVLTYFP

CCC[C@@H](C)[C@H](O)[C@H](C)[C@@H](O)[C@@H](C)[C@H](Cc1nc(C2=N[C@@](C)(C3=N[C@@](C)(C(=O)N[C@H]([C@@H](O)[C@@H](C)C(=O)O)[C@@H](C)CC)CS3)CS2)cs1)OC [compound 1, hoiamide D]
IC50: 4.5 µM
